Values quoted from earlier work, collected in US8298573B2, “Stable sterile filterable liposomal encapsulated taxane and other antineoplastic drugs” (priority 2003, dated 2012).

solubility in water: extremely low
SMILES: CC(=O)O[C@H]1C(=O)[C@@]2(C)[C@H]([C@H](OC(=O)c3ccccc3)[C@]3(O)C[C@H](OC(=O)[C@H](O)[C@@H](NC(=O)c4ccccc4)c4ccccc4)C(C)=C1C3(C)C)[C@]1(OC(C)=O)CO[C@@H]1C[C@@H]2O [paclitaxel]
